Data: patent publication US9540323B2 (BRISTOL-MYERS SQUIBB COMPANY, priority 2012, dated 2017)

What was measured:
[1] = biological target: T1, cloned human P2Y1 receptors (Homo sapiens (Human), UniProt P47900); experiment: Binding Assay A - membrane binding assay, [33P] 2MeS-ADP (WGA FlashPlate); details: values marked * in Table 1; 0.5 nM [33P] 2MeS-ADP, Cheng-Prusoff; read-out: P2Y1 Ki (nM) using binding assay A
From the text: A membrane binding assay was used to identify inhibitors of [^33P] […] The cDNA clone for human P2Y1 was obtained from Incyte Pharmaceuticals and its sequence confirmed by established techniques (for a compendium of techniques used see Ausubel, F. et al., Current Protocols in Molecular Biology, John Wiley and Sons, NY, NY (1995)). The essential coding sequences were subcloned into pCDNA 3.1 (Invitrogen) to produce a P2Y1 expression construct. This construct was then transfected into the human embryonic kidney cell line HEK-293 and stable transfectants selected in GENETICIN® (G418 sulfate; Life Technologies). […] Membranes were prepared by growing HEK293 #49 in 150 mm dishes in DMEM/10% FBS in the presence of 1 mg/ml G418 until cells were 80-90% confluent. Plates were then washed with cold (4° C.) D-PBS twice and cells harvested by scraping into 10 mL D-PBS. Cells were pelleted by centrifugation (1,000 g, 10 min, 4° C.) and the resulting pellet resuspended in Lysis Buffer (10 mM Tris (7.4), 5 mM MgCl2 containing Complete protease inhibitor cocktail (Roche Cat #1873580) as recommended by the manufacturer). The suspension was then homogenized in a Dounce homogenizer (10-15 strokes; B pestle, on ice) and the homogenate spun at 1,000 g, 4° C., 5 min to pellet large debris. The supernatant was centrifuged at 150,000 g, 4° C., for 1 hour and the resulting membrane pellet resuspended in 0.5-1 mL of Buffer B (15 mM HEPES (7.4), 145 mM NaCl, 0.1 mM MgCl2, 5 mM EDTA, 5 mM KCl) and stored at −70° C. until used.
Binding reactions were performed in WGA FLASHPLATE®s (PerkinElmer Life Sciences, Cat # SMP105A) in a volume of 200 μL containing ˜45 fmol of P2Y1 receptor (5 μg of total protein), 0.5 nM [^33P] […] Reactions were allowed to proceed to completion at room temperature for 1 hour and then the aqueous solution aspirated. Plates were sealed and the residual [^33P] bound to the plate determined by scintillation counting.

[2] = system: human platelet rich plasma (PRP); experiment: ADP induced platelet aggregation assay; details: Homo sapiens, Platelet, 5 min, read-out: PA IC50 (μM) @ 10 μM ADP, human PRP, 10 μM ADP, AUC at 5 minute
[3] = biological target: T1, cloned human P2Y1 receptors; experiment: Binding Assay B - Scintillation Proximity Assay (SPA) for P2Y1 binding, [33P] 2MeS-ADP; details: read-out: P2Y1 Ki (nM) using binding assay B
Experimental: Binding Assay B—Scintillation Proximity Assay (SPA) for P2Y1 Binding
A SPA membrane binding assay was used to identify inhibitors of [^33P] […] Reactions were allowed to proceed to completion at room temperature for 1 hour followed by centrifugation of the plate for 5 min. About 40 μL of the aqueous solution was aspirated. Plates were sealed and the [^33P]

[4] = SPA, 0.3 nM [33P] 2MeS-ADP, Cheng-Prusoff

T1 sequence (P47900 whole entry): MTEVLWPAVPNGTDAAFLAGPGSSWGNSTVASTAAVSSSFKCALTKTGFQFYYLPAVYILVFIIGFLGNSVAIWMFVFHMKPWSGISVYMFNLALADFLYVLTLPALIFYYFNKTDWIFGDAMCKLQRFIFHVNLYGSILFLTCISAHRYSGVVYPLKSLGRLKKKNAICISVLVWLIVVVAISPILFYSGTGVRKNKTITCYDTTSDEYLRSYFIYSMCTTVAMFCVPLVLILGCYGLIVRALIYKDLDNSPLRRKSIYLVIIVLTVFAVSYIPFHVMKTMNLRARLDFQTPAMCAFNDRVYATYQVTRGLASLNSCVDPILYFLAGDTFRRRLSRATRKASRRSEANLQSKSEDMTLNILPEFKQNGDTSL

In the case of `CCC1(CC)CN(c2ccccc2NC(=O)Nc2ccc(C3CCCN3CC(C)C)cc2)c2c1ccc(F)c2O` (stereo not shown) [Example 36, 1-(2-(3,3-Diethyl-6-fluoro-7-hydroxyindolin-1-yl)phenyl)-3-(4-(1-isobutylpyrrolidin-2-yl)phenyl)urea], the Ki [1] was 5.7 nM and the IC50 [2] was 0.21 µM.

In the case of `CCC1(CC)CN(c2ccccc2NC(=O)Nc2nc(C(C)C)ns2)c2c(O)ccc(Cl)c21` [Example 48, 1-(2-(4-Chloro-3,3-diethyl-7-hydroxyindolin-1-yl)phenyl)-3-(3-isopropyl-1,2,4-thiadiazol-5-yl)urea], the Ki [1] was 7 nM and the IC50 [2] was 0.48 µM.

Work on `CCC1(CC)CN(c2ccccc2NC(=O)Nc2nc3ccc(F)cc3s2)c2c(O)ccc(Cl)c21` [Example 49, 1-(2-(4-Chloro-3,3-diethyl-7-hydroxyindolin-1-yl)phenyl)-3-(6-fluorobenzo[d]thiazol-2-yl)urea] yielded a Ki [1] of 6.6 nM and an IC50 [2] of 0.18 µM.

`CC1(C)CN(c2ccccc2NC(=O)Nc2ccc(OC(F)(F)F)cc2)c2c(O)ccc(-c3ccc(F)cn3)c21` [Example 123, 1-(2-(4-(5-Fluoropyridin-2-yl)-7-hydroxy-3,3-dimethylindolin-1-yl)phenyl)-3-(4-(trifluoromethoxy)phenyl)urea] showed a Ki [1] of 4.5 nM and an IC50 [2] of 0.43 µM.

In the case of `CC1(C)CN(c2ccccc2NC(=O)Nc2ccc(OC(F)(F)F)cc2)c2c(O)ccc(-c3nccs3)c21` [Example 124, 1-(2-(7-Hydroxy-3,3-dimethyl-4-(thiazol-2-yl)indolin-1-yl)phenyl)-3-(4-(trifluoromethoxy)phenyl)urea], the Ki [1] was 3.4 nM and the IC50 [2] was 0.82 µM.

For `CC1(C)CN(c2ccccc2NC(=O)Nc2ccc(OC(F)(F)F)cc2)c2c(O)ccc(-c3ccc(C(F)(F)F)cn3)c21` [Example 125, 1-(2-(7-Hydroxy-3,3-dimethyl-4-(5-(trifluoromethyl)pyridin-2-yl)indolin-1-yl)phenyl)-3-(4-(trifluoromethoxy)phenyl)urea], the Ki [1] was 4.8 nM and the IC50 [2] was 0.15 µM.

`CC(C)c1cnc(-c2ccc(O)c3c2C(C)(C)CN3c2ccccc2NC(=O)Nc2ccc(OC(F)(F)F)cc2)nc1` [Example 126, 1-(2-(7-Hydroxy-4-(5-isopropylpyrimidin-2-yl)-3,3-dimethylindolin-1-yl)phenyl)-3-(4-(trifluoromethoxy)phenyl)urea] was tested, and the Ki [1] was 4.1 nM and the IC50 [2] was 0.3 µM.

`CC(C)c1nc(-c2ccc(O)c3c2C(C)(C)CN3c2ccccc2NC(=O)Nc2ccc(OC(F)(F)F)cc2)cs1` [Example 127, 1-(2-(7-Hydroxy-4-(2-isopropylthiazol-4-yl)-3,3-dimethylindolin-1-yl)phenyl)-3-(4-(trifluoromethoxy)phenyl)urea] gave a Ki [1] of 4.7 nM and an IC50 [2] of 0.28 µM.

For `CC1(C)CN(c2ccccc2NC(=O)Nc2nc3ccc(F)cc3s2)c2c(O)ccc(-c3nc4cc(F)ccc4s3)c21` [Example 171, 1-(6-Fluorobenzo[d]thiazol-2-yl)-3-(2-(4-(5-fluorobenzo[d]thiazol-2-yl)-7-hydroxy-3,3-dimethylindolin-1-yl)phenyl)urea], the Ki [1] was 8.7 nM and the IC50 [2] was 0.36 µM.

`CC1(C)CN(c2ccccc2NC(=O)Nc2nc3ccc(Cl)nc3s2)c2c(O)ccc(-c3nc4cc(F)ccc4s3)c21` [Example 173, 1-(5-Chlorothiazolo[5,4-b]pyridin-2-yl)-3-(2-(4-(5-fluorobenzo[d]thiazol-2-yl)-7-hydroxy-3,3-dimethylindolin-1-yl)phenyl)urea] was tested, and the Ki [1] was 20.7 nM and the IC50 [2] was 0.5 µM.

For `CC1(C)CN(c2ccccc2NC(=O)Nc2ccc(OC(F)(F)F)cc2)c2c(O)ccc(-c3nc4ccc(F)cc4s3)c21` [Example 174, 1-(2-(4-(6-Fluorobenzo[d]thiazol-2-yl)-7-hydroxy-3,3-dimethylindolin-1-yl)phenyl)-3-(4-(trifluoromethoxy)phenyl)urea], the Ki [1] was 6.3 nM and the IC50 [2] was 0.32 µM.

In the case of `CC1(C)CN(c2ccccc2NC(=O)Nc2nc3ccc(F)cc3s2)c2c(O)ccc(-c3nc4ccc(F)cc4s3)c21` [Example 175, 1-(6-Fluorobenzo[d]thiazol-2-yl)-3-(2-(4-(6-fluorobenzo[d]thiazol-2-yl)-7-hydroxy-3,3-dimethylindolin-1-yl)phenyl)urea], the Ki [1] was 17.6 nM and the IC50 [2] was 0.35 µM.

In the case of `CC1(C)CN(c2ccccc2NC(=O)Nc2nc3ccc(Cl)nc3s2)c2c(O)ccc(-c3nc4ccc(F)cc4s3)c21` [Example 176, 1-(5-Chlorothiazolo[5,4-b]pyridin-2-yl)-3-(2-(4-(6-fluorobenzo[d]thiazol-2-yl)-7-hydroxy-3,3-dimethylindolin-1-yl)phenyl)urea], the Ki [1] was 13 nM and the IC50 [2] was 0.35 µM.

Work on `CC1(C)CN(c2ccccc2NC(=O)Nc2csc(C(F)(F)F)n2)c2c(O)cc(F)c(-c3ccc(C(F)(F)F)cc3)c21` [Example 217, 1-(2-(5-Fluoro-7-hydroxy-3,3-dimethyl-4-(4-(trifluoromethyl)phenyl)indolin-1-yl)phenyl)-3-(2-(trifluoromethyl)thiazol-4-yl)urea] yielded a Ki [1] of 8 nM and an IC50 [2] of 0.16 µM.

With `CC1(C)CN(c2ccccc2NC(=O)Nc2csc(C(F)(F)F)n2)c2c(O)cc(F)c(-c3ccc(Cl)cc3)c21` [Example 218, 1-(2-(4-(4-Chlorophenyl)-5-fluoro-7-hydroxy-3,3-dimethylindolin-1-yl)phenyl)-3-(2-(trifluoromethyl)thiazol-4-yl)urea] the Ki [1] was 9.3 nM and the IC50 [2] was 0.37 µM.

`CC(C)n1nc(-c2c(F)cc(O)c3c2C(C)(C)CN3c2ccccc2NC(=O)Nc2csc(Cl)n2)cc1C(F)(F)F` [Example 273, 1-(2-Chlorothiazol-4-yl)-3-(2-(5-fluoro-7-hydroxy-4-(1-isopropyl-5-(trifluoromethyl)-1H-pyrazol-3-yl)-3,3-dimethylindolin-1-yl)phenyl)urea] showed a Ki [3, 4] of 9.4 nM and an IC50 [2] of 0.05 µM.

For `Cc1nc(-c2c(F)cc(O)c3c2C(C)(C)CN3c2ccccc2NC(=O)Nc2ccc(OC(F)(F)F)cc2)co1` [Example 274, 1-(2-(5-Fluoro-7-hydroxy-3,3-dimethyl-4-(2-methyloxazol-4-yl)indolin-1-yl)phenyl)-3-(4-(trifluoromethoxy)phenyl)urea], the Ki [3, 4] was 7.4 nM and the IC50 [2] was 3.39 µM.

`CC1(C)CN(c2ccccc2NC(=O)Nc2ccc(OC(F)(F)F)cc2)c2c(O)cc(F)c(-c3noc(C(F)(F)F)n3)c21` [Example 276, 1-(2-(5-Fluoro-7-hydroxy-3,3-dimethyl-4-(5-(trifluoromethyl)-1,2,4-oxadiazol-3-yl)indolin-1-yl)phenyl)-3-(4-(trifluoromethoxy)phenyl)urea] showed a Ki [3, 4] of 48.7 nM and an IC50 [2] of 0.64 µM.

For `CC1(C)CN(c2ccccc2NC(=O)Nc2nc3ccc(F)cc3s2)c2c(O)cc(F)c(-c3noc(C(F)(F)F)n3)c21` [Example 277, 1-(2-(5-Fluoro-7-hydroxy-3,3-dimethyl-4-(5-(trifluoromethyl)-1,2,4-oxadiazol-3-yl)indolin-1-yl)phenyl)-3-(6-fluorobenzo[d]thiazol-2-yl)urea], the Ki [3, 4] was 54.9 nM and the IC50 [2] was 0.26 µM.

`CC(C)(C)c1nc(-c2c(F)cc(O)c3c2C(C)(C)CN3c2ccccc2NC(=O)Nc2ccc(OC(F)(F)F)cc2)no1` [Example 278, 1-(2-(4-(5-(tert-Butyl)-1,2,4-oxadiazol-3-yl)-5-fluoro-7-hydroxy-3,3-dimethylindolin-1-yl)phenyl)-3-(4-(trifluoromethoxy)phenyl)urea] showed a Ki [3] of 8.1 nM and an IC50 [2] of 0.21 µM.
